According to patent US20230295234A1, “ANTIMICROBIAL PEPTIDOMIMETICS” (SPEXIS AG, priority 2020, published 2023):
Where two headings read alike, the source gives them in different places. Bridge positions count the residues as written; N and C are the ends. Square brackets hold non-standard residues; d marks the D form. Peptide text beside a SMILES is read from it. Gly(N-2-aminoethyl) = NCCNCC(=O)O; Cha = N[C@@H](CC1CCCCC1)C(=O)O; Pen = CC(C)(S)[C@H](N)C(=O)O; dDab = NCC[C@@H](N)C(=O)O; Dab = NCC[C@H](N)C(=O)O

What was measured:
[1] = tested on: Escherichia coli ATCC 25922; conditions: ATCC 25922
Experimental: (§1) Lyophilized peptides were weighed on a Microbalance (Mettler MT5) and dissolved in sterile water to a final concentration of 1 mg/mL. Stock solutions were kept at +4° C., light protected.
(§2) Colonies of the microorganisms were diluted in saline (0.85%, NaCl) and adjusted using a McFarland reader (bioMérieux SA, Marcy-l'Etoile, France) to 0.5 McFarland standard. Subsequently, the bacterial suspension was diluted in Mueller-Hinton II (MHII, cation adjusted) broth to give approximately 5×10^5 colony forming units (CFU/mL).
(§3) 10^6 colony forming units (CFU)/mL. Aliquots (90 μl) of inoculate were added to 10 μl of water+P-80 (Polysorbate 80, 0.002% final concentration) containing the peptide in serial two-fold dilutions at 10 fold final concentration. The following microorganisms were used to determine antibiotic selectivity of the peptides: Escherichia coli ATCC 25922, Escherichia coli MCR-1 Af 45 and Klebsiella pneumoniae SSI3010.

[2] = tested on: Escherichia coli MCR-1 Af 45
Experimental: as §1, §2, §3

[3] = tested on: Klebsiella pneumoniae SSI3010; conditions: SSI3010
Experimental: as §1, §2, §3

[4] = tested on: human red blood cells (hRBC); experiment: Hemolysis of human red blood cells; format: cell-based; conditions: red cells of human, 1 h
Experimental: Lyophilized peptides were weighed on a Microbalance (Mettler MT5) and dissolved in sterile water to a final concentration of 1 mg/mL. Stock solutions were kept at +4° C., light protected. The peptides were tested for their hemolytic activity against human red blood cells (hRBC). Fresh hRBC were washed three times with phosphate buffered saline (PBS) and centrifuged for 5 min at 3000×g. Compounds (200 μg/mL) were incubated with 20% hRBC (v/v) for 1 h at 37° C. and shaking at 300 rpm. […] The samples were centrifuged, the supernatants were 8-fold diluted in PBS buffer and the optical densities (OD) were measured at 540 nm. […] Percent hemolysis was calculated as follows: (OD540peptide/OD540H2O)×100%.

[5] = Mueller-Hinton broth II, 18-20 hours at 35° C.

Escherichia coli MCR-1 Af 45 MIC ([2]; MCR-1 Af 45) [µg/mL]	Structure (SMILES)	Escherichia coli ATCC 25922 MIC [1] [µg/mL]	Klebsiella pneumoniae SSI3010 MIC [3] [µg/mL]	Hemolysis at 0.2 g/L [4] [%]	Escherichia coli MCR-1 Af 45 MIC [2, 5] [µg/mL]
0.25	CC[C@H](C)[C@H](NC(=O)CN(CCN)C(=O)[C@@H](NC(=O)CNCCN)C(C)C)C(=O)N[C@H](C(=O)N[C@@H](Cc1ccc(O)cc1)C(=O)N[C@@H]1C(=O)N[C@@H](CC(N)=O)C(=O)N[C@@H](CCCNC(=N)N)C(=O)N[C@@H](CCN)C(=O)N[C@@H]([C@@H](C)O)C(=O)N[C@H](CCN)C(=O)N[C@@H](CCCCN)C(=O)N[C@H](C(=O)N[C@@H](CCN)C(=O)N[C@@H](CCCNC(=N)N)C(=O)N[C@@H](Cc2ccc(O)cc2)C(=O)O)CSSC1(C)C)[C@@H](C)CC [Example 29, Ndab-Val-Ndab-Ile-Ile-Tyr-Pen-Asn-Arg-Dab-Thr-^DDab-Lys-Cys-Dab-Arg-Tyr] (H-[Gly(N-2-aminoethyl)]V[Gly(N-2-aminoethyl)]IIY[Pen]NR[Dab]T[dDab]KC[Dab]RY-OH; disulfide 7-14)	0.25	0.25	0	–
–	CC[C@H](C)[C@H](NC(=O)[C@@H](NC(=O)[C@@H]1CCCN1C(=O)[C@@H](N=C(N(C)C)N(C)C)C(C)C)[C@@H](C)CC)C(=O)N[C@@H](Cc1ccc(O)cc1)C(=O)N[C@H]1CSSC[C@@H](C(=O)N[C@@H](CCN)C(=O)N[C@@H](CCCNC(=N)N)C(=O)N[C@@H](Cc2ccc(O)cc2)C(=O)O)NC(=O)[C@H](CCCCN)NC(=O)[C@@H](CCN)NC(=O)[C@H]([C@@H](C)O)NC(=O)[C@H](CCN)NC(=O)[C@H](CCCNC(=N)N)NC(=O)[C@H](CC(N)=O)NC1=O [Example 202] (HELM PEPTIDE1{[CC(C)[C@H](N=C(N(C)C)N(C)C)C(=O)[*:2]].P.I.I.Y.C.N.R.[Dab].T.[NCC[C@@H](N[*:1])C(=O)[*:2]].K.C.[Dab].R.Y}$PEPTIDE1,PEPTIDE1,6:R3-13:R3$$$V2.0)	0.0625	0.25	0	0.0625
–	CCCC[C@H](NC(=O)[C@H](CCCNC(=N)N)NC(=O)[C@H](CCN)NC(=O)[C@@H]1CSSC(C)(C)[C@H](NC(=O)[C@H](Cc2ccc(O)cc2)NC(=O)[C@@H](NC(=O)[C@@H](NC(=O)[C@@H]2C[C@@H](N)CN2C(=O)[C@@H](N)C(C)C)[C@@H](C)CC)[C@@H](C)CC)C(=O)N[C@@H](CC(N)=O)C(=O)N[C@@H](CCCNC(=N)N)C(=O)N[C@@H](CCN)C(=O)N[C@@H]([C@@H](C)O)C(=O)N[C@H](CCN)C(=O)N[C@@H](CCCCN)C(=O)N1)C(=O)O [Example 136] (HELM PEPTIDE1{V.[N[C@@H]1C[C@@H](C(=O)[*:2])N([*:1])C1].I.I.Y.[Pen].N.R.[Dab].T.[NCC[C@@H](N[*:1])C(=O)[*:2]].K.C.[Dab].R.[Nle]}$PEPTIDE1,PEPTIDE1,6:R3-13:R3$$$V2.0)	0.125	0.125	0	0.0625
–	CC[C@H](C)[C@H](NC(=O)[C@@H](NC(=O)[C@@H]1CCCN1C(=O)[C@@H](N)C(C)C)[C@@H](C)CC)C(=O)N[C@@H](Cc1ccc(O)cc1)C(=O)N[C@H]1CSSC[C@@H](C(=O)N[C@@H](CCN)C(=O)N[C@@H](CCCNC(=N)N)C(=O)N[C@@H](CC2CCCCC2)C(=O)O)NC(=O)[C@H](CCCCN)NC(=O)[C@@H](CCN)NC(=O)[C@H]([C@@H](C)O)NC(=O)[C@H](CCN)NC(=O)[C@H](CCCNC(=N)N)NC(=O)[C@H](CC(N)=O)NC1=O [Example 139] (HELM PEPTIDE1{V.P.I.I.Y.C.N.R.[Dab].T.[NCC[C@@H](N[*:1])C(=O)[*:2]].K.C.[Dab].R.[Cha]}$PEPTIDE1,PEPTIDE1,6:R3-13:R3$$$V2.0)	0.0625	0.125	0	0.0625
–	CC[C@H](C)[C@H](NC(=O)[C@@H]1C[C@@H](O)CN1C(=O)[C@@H](N)C(C)C)C(=O)N[C@H](C(=O)N[C@@H](Cc1ccc(O)cc1)C(=O)N[C@@H]1C(=O)N[C@@H]([C@@H](C)O)C(=O)N[C@@H](CCCNC(=N)N)C(=O)N[C@@H](CCN)C(=O)N[C@@H]([C@@H](C)O)C(=O)N[C@H](CCN)C(=O)N[C@@H](CCCCN)C(=O)N[C@H](C(=O)N[C@@H](CCN)C(=O)N[C@@H](CCCNC(=N)N)C(=O)N[C@@H](Cc2ccc(O)cc2)C(=O)O)CSSC1(C)C)[C@@H](C)O [Example 165] (HELM PEPTIDE1{V.[Hyp].I.T.Y.[Pen].T.R.[Dab].T.[NCC[C@@H](N[*:1])C(=O)[*:2]].K.C.[Dab].R.Y}$PEPTIDE1,PEPTIDE1,6:R3-13:R3$$$V2.0)	0.125	0.5	0	0.125
–	CC[C@H](C)[C@H](NC(=O)[C@@H](NC(=O)[C@@H]1C[C@@H](N)CN1C(=O)[C@@H](N)C(C)C)[C@@H](C)CC)C(=O)N[C@@H](Cc1ccc(O)cc1)C(=O)N[C@H]1CSSC[C@@H](C(=O)N[C@@H](CCN)C(=O)N[C@@H](CCCNC(=N)N)C(=O)N[C@@H](Cc2ccc(O)cc2)C(=O)O)NC(=O)[C@H](CCCCN)NC(=O)[C@@H](CCN)NC(=O)[C@H]([C@@H](C)O)NC(=O)[C@H](CCN)NC(=O)[C@H](CCCNC(=N)N)NC(=O)[C@H](CC(N)=O)NC1=O [Example 142] (HELM PEPTIDE1{V.[N[C@@H]1C[C@@H](C(=O)[*:2])N([*:1])C1].I.I.Y.C.N.R.[Dab].T.[NCC[C@@H](N[*:1])C(=O)[*:2]].K.C.[Dab].R.Y}$PEPTIDE1,PEPTIDE1,6:R3-13:R3$$$V2.0)	0.125	0.0625	0	0.0625
0.0625	CC[C@H](C)[C@H](NC(=O)[C@@H](NC(=O)[C@@H]1CCCN1C(=O)[C@@H](NC(=O)CNCCN)C(C)C)[C@@H](C)CC)C(=O)N[C@@H](Cc1ccc(O)cc1)C(=O)N[C@@H]1C(=O)N[C@@H](CC(N)=O)C(=O)N[C@@H](CCCNC(=N)N)C(=O)N[C@@H](CCN)C(=O)N[C@@H]([C@@H](C)O)C(=O)N[C@H](CCN)C(=O)N[C@@H](CCCCN)C(=O)N[C@H](C(=O)N[C@@H](CCN)C(=O)N[C@@H](CCCNC(=N)N)C(=O)N[C@@H](Cc2ccc(O)cc2)C(=O)O)CSSC1(C)C [Example 27, Ndab-Val-Pro-Ile-Ile-Tyr-Pen-Asn-Arg-Dab-Thr-^DDab-Lys-Cys-Dab-Arg-Tyr] (HELM PEPTIDE1{[NCCNCC(=O)[*:2]].V.P.I.I.Y.[Pen].N.R.[Dab].T.[NCC[C@@H](N[*:1])C(=O)[*:2]].K.C.[Dab].R.Y}$PEPTIDE1,PEPTIDE1,7:R3-14:R3$$$V2.0)	0.0625	0.125	0	–
≤0.03125	CCCC[C@H](NC(=O)[C@H](CCCNC(=N)N)NC(=O)[C@H](CCN)NC(=O)[C@@H]1CSSC(C)(C)[C@H](NC(=O)[C@H](Cc2ccc(O)cc2)NC(=O)[C@@H](NC(=O)[C@@H](NC(=O)[C@@H]2CCCN2C(=O)[C@@H](NC(=O)CN(CCN)CCN)C(C)C)[C@@H](C)CC)[C@@H](C)CC)C(=O)N[C@@H](CC(N)=O)C(=O)N[C@@H](CCCNC(=N)N)C(=O)N[C@@H](CCCNC(=N)N)C(=O)N[C@@H]([C@@H](C)O)C(=O)N[C@H](CCN)C(=O)N[C@@H](CCCCN)C(=O)N1)C(=O)O [Example 39, Bis(2aminoethyl)Gly-Val-Pro-Ile-Ile-Tyr-Pen-Asn-Arg-Arg-Thr-^DDab-Lys-Cys-Dab-Arg-Nle] (HELM PEPTIDE1{[NCCN(CCN)CC(=O)[*:2]].V.P.I.I.Y.[Pen].N.R.R.T.[NCC[C@@H](N[*:1])C(=O)[*:2]].K.C.[Dab].R.[Nle]}$PEPTIDE1,PEPTIDE1,7:R3-14:R3$$$V2.0)	0.0625	0.0625	0	–
≤0.03125	CC[C@H](C)[C@H](NC(=O)CN(CCN)C(=O)[C@@H](NC(=O)CNCCN)C(C)C)C(=O)N[C@H](C(=O)N[C@@H](Cc1ccc(O)cc1)C(=O)N[C@@H]1C(=O)N[C@@H](CC(N)=O)C(=O)N[C@@H](CCCNC(=N)N)C(=O)N[C@@H](CCN)C(=O)N[C@@H]([C@@H](C)O)C(=O)N[C@H](CCN)C(=O)N[C@@H](CCCCN)C(=O)N[C@H](C(=O)N[C@@H](CCN)C(=O)N[C@@H](CCCNC(=N)N)C(=O)N[C@@H](CC2CCCCC2)C(=O)O)CSSC1(C)C)[C@@H](C)CC [Example 21, Ndab-Val-Ndab-Ile-Ile-Tyr-Pen-Asn-Arg-Dab-Thr-^DDab-Lys-Cys-Dab-Arg-Cha] (H-[Gly(N-2-aminoethyl)]V[Gly(N-2-aminoethyl)]IIY[Pen]NR[Dab]T[dDab]KC[Dab]R[Cha]-OH; disulfide 7-14)	0.0625	0.25	0	–
